Earlier results in patent US4221778A, “Prolonged release pharmaceutical preparations” (Pennwalt Corporation, priority 1979, dated 1980).
Counter-ions that a name gives are not always drawn.

Columns and labels:
[1] = test system: pathological cough
[2] = not given; remark: listed apart in the source
[3] = not given; remark: listed apart in the source

## COc1ccc2c(c1)[C@]13CCCC[C@@H]1[C@H](C2)N(C)CC3 [Dextromethorphan]
[1]; compared with codeine
  effectiveness in patients with pathological cough: about the equal of codeine
[1]; human, in vivo
  analgesic or addictive properties: no analgesic or addictive properties
  toxicity: quite low
[1]; unlike codeine
  drowsiness: rarely produces drowsiness

## CN[C@@H](C)[C@H](O)c1ccccc1 [Ephedrine]
other
  biological half life in man: about 6 hours

## CC(N)C(O)c1ccccc1 (stereo not shown) [PPA, phenylpropanolamine]
[2]
  pKa: 9.4
other
  biological half life in man: 3.9 hours

## CC(C)(N)Cc1ccccc1 [Phentermine hydrochloride]
[3]; hydrochloride salt, doses of 15 mg. and 30 mg.
  blood levels in humans: rapid peak concentrations

## CC(C)(N)Cc1ccccc1 [Phentermine, phenyl-tertiary-butyl-amine]
[3]; free form
  absorption from the gastrointestinal tract: rapidly absorbed

## CN[C@@H](C)[C@@H](O)c1ccccc1 [Pseudoephedrine]
other
  biological half life in man: 5-7 hours
